Tests used:
[1] = system: MDA-MB-468; assay: cells; settings: Homo sapiens, MDA-MB-468, 24 h
Description: Antiproliferative activity against human MDA-MB-468 cells assessed as reduction in cell viability incubated for 24 hrs by MTT assay

[2] = system: MDA-MB-231; assay: Induction of autophagy in human MDA-MB-231 cells assessed as MDC positive ratio at 1 uM incubated for 6 hrs by MDC staining based flow cytometry analysis; type: functional
[3] = system: A549; assay: cells; settings: Homo sapiens, A549, 24 h
Description: Antiproliferative activity against human A549 cells assessed as reduction in cell viability incubated for 24 hrs by MTT assay

[4] = biological target: Serine/threonine-protein kinase mTOR (Homo sapiens, UniProt P42345); assay: Inhibition of mTOR (unknown origin)
[5] = system: MDA-MB-231; assay: cells; settings: Homo sapiens, MDA-MB-231, 24 h
Description: Antiproliferative activity against human MDA-MB-231 cells assessed as reduction in cell viability incubated for 24 hrs by MTT assay

| SMILES | IC50 [1] [µM] | IC50 [3] [µM] | IC50 [4] [µM] | IC50 [5] [µM] | Activity [2] [%] |
| --- | --- | --- | --- | --- | --- |
| CO[C@H]1C[C@@H]2CC[C@@H](C)[C@@](O)(O2)C(=O)C(=O)N2CCCC[C@H]2C(=O)O[C@H]([C@H](C)C[C@@H]2CC[C@@H](OC(=O)C(C)(CO)CO)[C@H](OC)C2)CC(=O)[C@H](C)/C=C(\C)[C@@H](O)[C@@H](OC)C(=O)[C@H](C)C[C@H](C)/C=C/C=C/C=C/1C [TEMSIROLIMUS] | 10.9 | 11.8 | 2.29 | 17.6 | 15.33 |
| CO[C@H]1C[C@@H]2CC[C@@H](C)[C@@](O)(O2)C(=O)C(=O)N2CCCC[C@H]2C(=O)O[C@H]([C@H](C)C[C@@H]2CC[C@@H](O)[C@H](OC)C2)CC(=O)[C@H](C)/C=C(\C)[C@@H](O)[C@@H](OC)C(=O)[C@H](C)C[C@H](C)/C=C/C=C/C=C/1C [SIROLIMUS] | 37.2 | 30.7 |  | 35.8 | 31.03 |
| C/C(=N\NC(=O)c1ccc(C)c(F)c1)c1ccc(C(=O)Nc2cc(N3CCOCC3)ccn2)cc1 | 12.1 | 13.9 | 3.83 | 13.2 | 19.22 |
| C/C(=N\NC(=O)c1cccc(Br)c1)c1cc(O)cc(O)c1 | 11 | 10.3 | 8.2 | 9.13 | 16.33 |
| O=C(NCc1ccc(O)cc1)Nc1cccc(F)c1 | 34.1 | 22.3 | > 30 | 27.7 | 8.31 |
| O=C(NCc1ccc(O)cc1)Nc1cccc(Cl)c1 | 25.9 | 31.2 | 27.1 | 19.5 | 9.22 |
| O=C(NCc1cc(C(F)(F)F)cc(C(F)(F)F)c1)Nc1ccc(C(F)(F)F)cc1 | 17.9 | 13.3 | 20.4 | 16.9 | 9.62 |
| Cc1ccc(C(=O)Nc2ccc3ccccc3n2)cc1Br | 27.5 | 31.6 | 17.9 | 38 | 13.81 |
| CC(NC(=O)Nc1cccc(F)c1)c1ccccc1 (centres undefined) | 31.9 | 33 | 16.9 | 34.1 | 8.29 |
| CC(NC(=O)Nc1cccc(Cl)c1)c1ccccc1 (centres undefined) | 23.7 | 24.8 | > 30 | 22.6 | 9.25 |
| O=C(NCc1cc(C(F)(F)F)cc(C(F)(F)F)c1)Nc1cccc(F)c1 | 17.5 | 12.5 | 17.6 | 13.8 | 8.77 |
| O=C(Nc1nc2ccccc2[nH]1)c1ccc(OC(F)(F)F)cc1 | 24.1 | 27.5 | 3.99 | 29 | 11.22 |
| CN(Cc1ccccc1)C(=O)Nc1ccc(C(F)(F)F)cc1 | 21.9 | 28.8 | 10.1 | 21.2 | 7.34 |
| O=C(Nc1ccc(C(F)(F)F)cc1)Nc1cccc(F)c1 | 11.9 | 11.5 | 12.6 | 10.3 | 7.22 |
| C/C(=N\NC(=O)c1cccc(I)c1)c1ccncc1 | 12.1 | 9.84 | 1.17 | 12.5 | 15.79 |
| O=C(Nc1cccc(F)c1)Nc1nc2ccccc2[nH]1 | 24.1 | 19.8 | 4.93 | 19 | 8.32 |
| O=C(Nc1ccc(C(F)(F)F)cc1)Nc1nc2ccccc2[nH]1 | 23.7 | 23.5 | 23.7 | 22.8 | 8.2 |
| Cc1ccc(C(=O)NCc2ccc(O)cc2)cc1Br | 41.9 | 33.8 | > 30 | 33.4 | 12.73 |
| O=C(NCc1ccc(O)cc1)Nc1ccc(C(F)(F)F)cc1 | 17.5 | 36.7 | 10.3 | 22.9 | 8.29 |
| C/C(=N\NC(=O)c1ccc(C)c(Br)c1)c1ccc(N)cc1 | 12.1 | 13.6 | 7.3 | 9.91 | 18.9 |
| Cc1ccc(C(=O)Nc2cc3ccccc3cn2)cc1Br | 25.9 | 26.4 | 15.3 | 32.1 | 11.8 |
| C/C(=N\NC(=O)c1cccc(Br)c1)c1ccc(N)cc1 | 13.1 | 13 | 6.21 | 10.9 | 15.81 |
| Cc1ccc(C(=O)NCCc2ccc(O)cc2)cc1Br | 33.7 | 34 | > 30 | 41.7 | 11.23 |
| O=C(NCc1cccc(Br)c1)Nc1ccc(C(F)(F)F)cc1 | 24.3 | 26.4 | 15.8 | 20.8 | 9.1 |

Stronger by IC50 [1], values ahead:

| IC50 [1] [µM] | IC50 [3] [µM] | IC50 [4] [µM] | IC50 [5] [µM] | SMILES | Activity [2] [%] |
| --- | --- | --- | --- | --- | --- |
| 8.76 | 9.46 | 1.98 | 8.3 | C/C(=N\NC(=O)c1ccc(C)c(I)c1)c1ccc(C(F)(F)F)cc1 | 14.89 |
| 8.69 | 12.4 | 5.24 | 11 | C/C(=N\NC(=O)c1ccc(C)c(Br)c1)c1ccncc1 | 15.26 |
| 8.32 | 10.5 | 1.29 | 9.24 | C/C(=N\NC(=O)c1cccc(Br)c1)c1ccc(C(=O)Nc2cc[nH]n2)cc1 | 19.78 |
| 8.3 | 13 | 4.79 | 13.1 | C/C(=N\NC(=O)c1cccc(I)c1)c1ccc(N)cc1 | 15.27 |
| 9.91 | 9.07 | 4.76 | 9.3 | C/C(=N\NC(=O)c1ccc(C)c(Br)c1)c1ccc(C(F)(F)F)cc1 | 18.65 |
| 6.06 | 7.81 | 0.83 | 5.03 | C/C(=N\NC(=O)c1cccc(F)c1)c1ccc(C(=O)Nc2nc3ccccc3[nH]2)cc1 | 22.34 |
| 9.24 | 15.4 | 4.22 | 10.8 | C/C(=N\NC(=O)c1cccc(F)c1)c1ccc(O)cc1O | 15.04 |
| 10.2 | 13.7 | 2.45 | 9.21 | C/C(=N\NC(=O)c1cccc(Br)c1)c1ccc(C(=O)Nc2cc(N3CCOCC3)ccn2)cc1 | 20.99 |
| 8.17 | 11.2 | 4.84 | 8.11 | C/C(=N\NC(=O)c1cccc(Br)c1)c1ccc(C(=O)NN2CCOCC2)cc1 | 17.2 |
| 8.46 | 10.1 | 2.01 | 6.71 | C/C(=N\NC(=O)c1ccc(C)c(Br)c1)c1ccc(O)cc1 | 19.27 |
| 9.54 | 9.93 | 5.08 | 8.46 | C/C(=N\NC(=O)c1ccc(C)c(I)c1)c1ccc(N)cc1 | 14.28 |
| 10.3 | 11.3 | 1.66 | 9.08 | C/C(=N\NC(=O)c1ccc(C)c(I)c1)c1ccncc1 | 16.25 |
| 9.55 | 12 | 4.32 | 8.4 | C/C(=N\NC(=O)c1ccc(C)c(F)c1)c1ccc(N)cc1 | 15.44 |
| 6.37 | 8.91 | 0.82 | 8.96 | C/C(=N\NC(=O)c1cccc(I)c1)c1ccc(C(=O)O)cc1 | 17.2 |
| 5.51 | 7.78 | 0.69 | 7.5 | C/C(=N\NC(=O)c1cccc(Br)c1)c1ccc(C(=O)O)cc1 | 19.83 |

— ChEMBL document CHEMBL4819087, “Identification and optimization of 3-bromo-N'-(4-hydroxybenzylidene)-4-methylbenzohydrazide derivatives as mTOR inhibitors that induce autophagic cell death and apoptosis in triple-negative breast cancer” (Eur J Med Chem, 2021)
